In patent publication US8420100B2, “Tumor suppressor activating polypeptides and uses thereof” (Department of Biotechnology, priority 2006, dated 2013):

Columns and labels:
Type in all cases: cell-based
[1] = biological target: T1, p53 (serine-15 phosphorylation) (Homo sapiens, UniProt P04637); assay: Western blotting for total p53 and phospho serine-15 p53 in peptide-treated HEK 293 cells; conditions: for p53 activation (pSer-15 p53 level): HEK 293, 10 μM peptide, 12 h (FIG. 4A)
T1 construct: HEK 293 (p53^+/+) cells; endogenous in cells; host or cells: HEK 293
Procedure: P44 peptide controls the activity of cell cycle regulatory proteins: The minimal dose of P44 peptide that was functionally effective in activating p53 was evaluated by incubating HEK 293 cells with varying concentrations of P44 peptide (1-100 μM) (FIG. 3A) and after 12 h of incubation, protein lysates were prepared and processed for immunoblotting with total p53 (DO-1) and p53 ser-15 phospho-specific antibodies. […] However, there was a 4.5-fold increase in the expression of phosphorylated p53 (pSerine-15 p53) in P44 peptide-treated cells (FIG. 3A, lanes 2-6). To exclude the possibility that p53 activation is an effect of the protein transduction domain of HIV-1 TAT protein, similar set of experiment was performed using TAT-PTD peptide alone (consisting of only the 11-mer TAT-sequence). […] This observation reconfirmed that the RS domain (288-350 aa) of SMAR1 could exclusively activate p53 by mediating its phosphorylation specifically at serine-15 residue. Serine-15 phosphorylation of p53 is associated with its increased transcription efficiency, decreased affinity for MDM2, and its increased nuclear retention. One of the target genes activated by p53 is p21, an inhibitor of a subset of the cyclin-dependent kinases including cdc-2 (Sherr, C. J., and Roberts, J. M. (1999) Genes Dev. 13, 1501-1512). To evaluate the significance of peptide-mediated p53 activation, P44 peptide-treated lysates were further checked for tyrosine 15 phosphorylation of cdc2. […] HEK 293 cells were treated with SM peptide and checked for p53 as well as pcdc-2 levels.
Serine 347 residue of SMAR1: critical for mediating the effects of full-length SMAR1: Once it was established that the serine motif (SSSSYS) plays a pivotal role in SMAR1-mediated p53 activation, it got necessary to identify the serine residue within this motif that might be necessary in mediating these effects. To identify the critical serine residue within P44 peptide, various point-mutant peptides were custom synthesized, that varied with respect to the position of serine residue that was mutated (Table 1). To evaluate the functionality of mutant chimeric TAT-SMAR1 peptides [PS347A, PS348A, PS349A, PS350A and RS mutant (SM)] in comparison to the TAT-SMAR1 WT peptide (P44), HEK 293 cells were treated with 10 μM concentration of either of the peptides and protein lysates were prepared after 12 h incubation period. The lysates were then processed for immunoblotting with pSer-15 p53 and pcdc-2 antibodies. […] However, this was not the case with other mutated peptides. When the alanine was replaced back to serine at the 347 residue (FIG. 4A, lanes 3-5), the functionality of the peptide was restored as observed with increase in pcdc-2 levels. […] However, in case of SM (where serine residues from 347-350 were replaced by alanines) treated cells (FIG. 4A, lane 7), there was no difference in the pSer-15 p53 as well as pcdc-2 levels compared to either untreated or PS347A treated cells (FIG. 4A, lanes 1 and 2, respectively).
FIG. 3. P44 peptide activates p53-mediated cell cycle pathway. A, HEK 293 cells were seeded at a density of 5×10^5 and after 24 h, was incubated with increasing concentrations of the TAT-SMAR1 WT (P44) peptide. Protein lysates were prepared and then immunoblotted with antibodies to total p53, phospho serine-15. B, The same set of experiment was repeated with TAT PTD peptide representing the PTD carrier sequence alone and immunoblotted with phospho serine-15, in comparison of P44 treated cells. C, The status of phospho cdc-2 was further analyzed in P44 peptide treated cells. Total […] was used as an internal control. D, The same set of experiments were again repeated using TAT-SMAR1 RS mutant (SM) peptide and whole cell lysates were probed for phospho p53 serine-15 and pcdc-2 antibodies. […] was used as a loading control.
FIG. 4. Serine 347 residue of SMAR1 mediates p53 activation and stabilization. […]

[2] = tested on: p53-driven p21 promoter in K562 (p53-/-) cells; assay: p21 luciferase reporter assay in K562 (p53-/-) cells; conditions: 10 μM peptide; for activation of p53 (p21 promoter driven luciferase activity): K562 (p53-/-) co-transfected with p21 luciferase reporter and p53 constructs, 12 h
Procedure: (§1) TAT-SMAR1 WT peptide (P44) modulates p53 function: To examine whether P44 peptide could alone activate p53^−, luciferase reporter assays were performed following treatment of cells with the chimeric TAT-SMAR1 derived peptides. HEK 293 (p53^+/+) cells were transfected with p21 expression plasmid having luciferase reporter gene and K562 (p53^−/−) cells were co-transfected with p21 luciferase reporter and p53 constructs. […] (FIG. 2A, bar 3) and about 1.5 fold activation in p53^−/− cell line (FIG. 2B, bar 4).
(§2) FIG. 2. P44 peptide activates the p53-driven p21 gene expression in reporter assays. p21 promoter activity was checked in both HEK 293 (p53^+/+) (A) and K562 (P53^−/−) cells (B). Cells were transfected with either pG13 […] reporter plasmid, a p53-driven p21 promoter, in HEK 293 cells or cotransfected with wild-type (wt) p53 in K562 cells. After 24 h post-transfection, cells were treated for 12 h with 10 μM concentration of various TAT-SMAR1 chimeric peptides. Y axis represents the fold luciferase activity (mean±SD of three independent experiments).
(§3) Luciferase reporter assay: HEK 293 (p53^+/+) and K562 (p53^−/−) cells were grown in DMEM supplemented with 10% FBS in the presence of 5% CO2 at 37° C., a total number of 1×10^6, cells were plated on a 6-well plate. After 24 h, cells were transiently transfected using lipofectamine-2000 with either 1 μg of p21 expression plasmid having luciferase reporter gene or 5 μg p21 luciferase along with wt p53 construct in K562 cell line. Two micrograms of pRL-CMV (Renilla luciferase reporter plasmid) was included in all transfections to normalize the transfection efficiency. Thirty six hours post-transfection, cells were treated with 10 μM of either P44 peptide or its various mutants. The cells were harvested 12 h post-treatment, washed with PBS and lysed in 1× Passive lysis buffer (Promega). After three freeze-thaw cycles, cells were spun at 10,000 rpm at 4° C. for 20 min. The supernatants were collected and protein concentrations were estimated spectrophotometrically using Bradford reagent as (BioRad, CA). According to the manufacturer's instructions, luciferase activity was assessed using the dual luciferase assay reporter kit (Promega). The luciferase activity was measured by using Fluoroskan Ascent Luminometer (Labsystems). For all the luciferase assays, the data shown are the mean+SD of three independent experiments.

[3] = tested on: p53-driven p21 promoter in HEK 293 (p53+/+) cells; assay: p21 luciferase reporter assay in HEK 293 (p53+/+) cells; conditions: 10 μM peptide, 12 h
Procedure: as §1, §2, §3

T1 sequence (P04637 whole entry): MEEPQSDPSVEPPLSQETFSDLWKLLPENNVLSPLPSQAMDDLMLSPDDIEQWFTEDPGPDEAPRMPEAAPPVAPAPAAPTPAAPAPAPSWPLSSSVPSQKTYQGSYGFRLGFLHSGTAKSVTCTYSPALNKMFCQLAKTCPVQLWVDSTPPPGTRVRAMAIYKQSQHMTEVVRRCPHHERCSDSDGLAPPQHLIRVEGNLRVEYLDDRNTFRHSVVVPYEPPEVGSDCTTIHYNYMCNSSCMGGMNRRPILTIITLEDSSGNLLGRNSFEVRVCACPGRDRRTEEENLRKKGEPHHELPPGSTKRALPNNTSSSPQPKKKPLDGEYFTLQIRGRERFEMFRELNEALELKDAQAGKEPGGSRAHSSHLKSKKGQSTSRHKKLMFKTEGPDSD

| Sequence | p53 activation (pSer-15 p53 level) [1] | activation of p53 (p21 promoter driven luciferase activity) [2] | activation of p53 (p21 promoter driven luciferase activity) [3] | increase in expression of phosphorylated p53 (pSerine-15 p53) ([1]; HEK 293, P44 1-100 μM, 12 h) [fold] | total p53 expression (DO-1) ([1]; HEK 293, P44 1-100 μM, 12 h) | p21 promoter luciferase activity with peptide alone ([2]; K562 (p53-/-) cells without p53 construct) | expression level of p53 phospho-serine 15 compared to untreated cells ([1]; HEK 293, SM peptide-treated lysates (FIG. 3D)) |
| --- | --- | --- | --- | --- | --- | --- | --- |
| YGRKKRRQRRRTAWRRKQRGQSLAVKSFSRRTPASSSYSASETM [PS347A, point mutant of P44, serine 347 replaced by alanine] | no significant activation | complete loss | complete loss |  |  |  |  |
| YGRKKRRQRRRTAWRRKQRGQSLAVKSFSRRTPSSASYSASETM [PS349A, point mutant of P44, serine 349 replaced by alanine] | No significant decrease | No significant alteration | No significant alteration |  |  |  |  |
| YGRKKRRQRRRTAWRRKQRGQSLAVKSFSRRTPSSSAYSASETM [PS350A, point mutant of P44, serine 350 replaced by alanine] | No significant decrease | No significant alteration | No significant alteration |  |  |  |  |
| YGRKKRRQRRRTAWRRKQRGQSLAVKSFSRRTPSASSYSASETM [PS348A, point mutant of P44, serine 348 replaced by alanine] | No significant decrease | No significant alteration | No significant alteration |  |  |  |  |
| YGRKKRRQRRRTAWRRKQRGQSLAVKSFSRRTPSSSSYSASETM [P44, 33 mer SMAR1 peptide (residues 324-357) conjugated with 11-mer TAT-PTD] |  | about 1.5 fold | 2 fold | 4.5 | slight increase | no activity |  |
| YGRKKRRQRRRTAWRRKQRGQSLAVKSFSRRTPAAAAYSASETM [SM, P44 mutant where serine residues from 347-350 were replaced by alanines] | no difference | complete loss | complete loss |  |  |  | no increase |
